Measurements taken from patent publication US10479788B2, “Compounds that inhibit MPS1 kinase” (Cancer Research Technology Limited, priority 2012, dated 2019).

Target: full length MPS1 (Homo sapiens (Human), UniProt P33981)
Experiment: Measurement of Inhibition of MPS1 Kinase
Type: biochemical
Details: full length MPS1 12.5 nM or 3 nM, H236 peptide 5 μM, ATP 10 μM, 60 min at room temperature, Caliper EZ reader II
Procedure: The reaction was carried out for 60 min at room temperature and stopped by the addition of buffer (10 μl) containing 20 mM EDTA, 0.05% (v/v) Brij-35, in 0.1M HEPES-buffered saline (Free acid, Sigma, UK). The plate was read on a Caliper EZ reader II (Caliper Life Sciences).
The % inhibition of the compounds is calculated relative to the means of selected control wells. […] The % inhibitions at each concentration are then fitted to a 4 parameter logistic fit: y=(a+((b−a)/(1+((c/x^d)))) where a=asym min, b=asym max, c=IC50 and d=hill coefficient

Chain of full length MPS1 (P33981 whole entry): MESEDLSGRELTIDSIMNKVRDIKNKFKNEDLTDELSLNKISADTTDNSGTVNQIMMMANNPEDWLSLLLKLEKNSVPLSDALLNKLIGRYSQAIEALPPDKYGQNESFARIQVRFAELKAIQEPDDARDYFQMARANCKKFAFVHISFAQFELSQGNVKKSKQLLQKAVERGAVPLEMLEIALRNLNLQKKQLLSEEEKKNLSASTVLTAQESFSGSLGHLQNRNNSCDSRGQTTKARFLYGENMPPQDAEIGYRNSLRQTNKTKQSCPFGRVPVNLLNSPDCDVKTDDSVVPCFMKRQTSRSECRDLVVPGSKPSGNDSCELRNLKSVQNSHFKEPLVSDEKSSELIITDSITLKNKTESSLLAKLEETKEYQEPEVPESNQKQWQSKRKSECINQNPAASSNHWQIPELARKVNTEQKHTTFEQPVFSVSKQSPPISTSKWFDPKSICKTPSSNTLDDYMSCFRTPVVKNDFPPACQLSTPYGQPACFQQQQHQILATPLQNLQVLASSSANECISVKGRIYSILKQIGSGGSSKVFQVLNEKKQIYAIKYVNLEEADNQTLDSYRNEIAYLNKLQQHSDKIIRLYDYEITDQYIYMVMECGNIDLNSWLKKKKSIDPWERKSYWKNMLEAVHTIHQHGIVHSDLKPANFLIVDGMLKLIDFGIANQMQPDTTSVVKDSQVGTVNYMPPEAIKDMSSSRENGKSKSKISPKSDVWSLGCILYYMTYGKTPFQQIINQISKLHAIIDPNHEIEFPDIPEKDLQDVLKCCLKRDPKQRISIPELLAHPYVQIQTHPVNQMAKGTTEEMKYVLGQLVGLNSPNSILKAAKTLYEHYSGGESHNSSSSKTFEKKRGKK

`COc1cc(-c2cnn(C)c2)ccc1Nc1ncc2ccnc(N3CCCC3C)c2n1` (stereo not shown) [Example 64] showed an IC50 of 6 nM.
